This is an account of results in ChEMBL document CHEMBL3991601, “The target landscape of clinical kinase drugs” (Science, 2017).

The target of test [1] is T1, Serine/threonine-protein kinase Nek2 (Homo sapiens, UniProt P51955).
T1 sequence (P51955 whole entry): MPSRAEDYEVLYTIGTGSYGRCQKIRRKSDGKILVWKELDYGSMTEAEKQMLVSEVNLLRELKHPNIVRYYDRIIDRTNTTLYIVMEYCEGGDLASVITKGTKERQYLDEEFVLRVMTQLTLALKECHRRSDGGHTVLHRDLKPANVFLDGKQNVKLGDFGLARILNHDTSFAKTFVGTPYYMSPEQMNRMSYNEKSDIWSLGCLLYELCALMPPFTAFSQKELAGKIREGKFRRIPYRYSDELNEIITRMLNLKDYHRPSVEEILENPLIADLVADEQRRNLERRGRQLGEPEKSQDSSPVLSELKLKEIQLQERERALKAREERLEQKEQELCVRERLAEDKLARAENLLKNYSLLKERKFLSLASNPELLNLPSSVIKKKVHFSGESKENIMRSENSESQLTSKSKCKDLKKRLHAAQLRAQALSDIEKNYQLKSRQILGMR

The target of test [2] is DnaJ homolog subfamily A member 1 (Homo sapiens, UniProt P31689).
Sequence of DnaJ homolog subfamily A member 1 (P31689 whole entry): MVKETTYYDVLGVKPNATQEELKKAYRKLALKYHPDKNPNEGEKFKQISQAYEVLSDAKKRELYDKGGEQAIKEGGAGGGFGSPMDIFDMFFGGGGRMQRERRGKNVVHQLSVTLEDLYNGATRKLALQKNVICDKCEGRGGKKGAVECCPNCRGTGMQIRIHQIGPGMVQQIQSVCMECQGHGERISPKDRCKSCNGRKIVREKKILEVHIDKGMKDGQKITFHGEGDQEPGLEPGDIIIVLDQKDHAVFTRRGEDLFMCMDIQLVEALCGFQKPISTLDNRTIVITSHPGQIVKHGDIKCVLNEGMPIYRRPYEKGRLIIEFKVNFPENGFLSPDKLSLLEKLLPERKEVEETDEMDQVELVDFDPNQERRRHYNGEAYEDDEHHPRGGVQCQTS
Test [3] has as its target T2, Ras-related protein Rab-27A (Homo sapiens, UniProt P51159).
T2 sequence (P51159 whole entry): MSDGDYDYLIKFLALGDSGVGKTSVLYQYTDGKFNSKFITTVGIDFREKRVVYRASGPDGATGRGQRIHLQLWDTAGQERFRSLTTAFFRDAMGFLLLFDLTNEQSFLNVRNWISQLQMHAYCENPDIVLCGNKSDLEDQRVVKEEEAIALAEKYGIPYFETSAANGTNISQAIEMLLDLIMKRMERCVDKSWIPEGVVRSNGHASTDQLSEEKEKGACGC

The target in the next test is Ephrin type-A receptor 4 (Homo sapiens, UniProt P54764).
The target of test [4] is T3, Delta(24)-sterol reductase (Homo sapiens, UniProt Q15392).
T3 sequence (Q15392 whole entry): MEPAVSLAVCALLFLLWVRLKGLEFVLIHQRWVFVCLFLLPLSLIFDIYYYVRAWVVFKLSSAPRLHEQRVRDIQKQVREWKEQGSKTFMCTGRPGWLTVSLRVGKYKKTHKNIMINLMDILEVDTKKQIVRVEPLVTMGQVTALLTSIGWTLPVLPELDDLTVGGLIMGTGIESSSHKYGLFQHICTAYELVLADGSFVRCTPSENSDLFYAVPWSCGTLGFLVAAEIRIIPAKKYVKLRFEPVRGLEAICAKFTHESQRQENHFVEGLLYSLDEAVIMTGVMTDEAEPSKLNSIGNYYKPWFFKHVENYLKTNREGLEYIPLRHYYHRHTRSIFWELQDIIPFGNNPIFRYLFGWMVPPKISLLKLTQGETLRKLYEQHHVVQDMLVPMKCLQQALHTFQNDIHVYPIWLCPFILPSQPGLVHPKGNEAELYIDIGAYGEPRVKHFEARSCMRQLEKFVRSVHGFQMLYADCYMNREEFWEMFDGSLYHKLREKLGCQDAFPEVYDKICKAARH

The target of test [5] is Platelet-derived growth factor receptor beta (Homo sapiens, UniProt P09619).
In test [6] the target is ATP-dependent RNA helicase DDX3X (Homo sapiens, UniProt O00571).
Sequence of ATP-dependent RNA helicase DDX3X (O00571 whole entry): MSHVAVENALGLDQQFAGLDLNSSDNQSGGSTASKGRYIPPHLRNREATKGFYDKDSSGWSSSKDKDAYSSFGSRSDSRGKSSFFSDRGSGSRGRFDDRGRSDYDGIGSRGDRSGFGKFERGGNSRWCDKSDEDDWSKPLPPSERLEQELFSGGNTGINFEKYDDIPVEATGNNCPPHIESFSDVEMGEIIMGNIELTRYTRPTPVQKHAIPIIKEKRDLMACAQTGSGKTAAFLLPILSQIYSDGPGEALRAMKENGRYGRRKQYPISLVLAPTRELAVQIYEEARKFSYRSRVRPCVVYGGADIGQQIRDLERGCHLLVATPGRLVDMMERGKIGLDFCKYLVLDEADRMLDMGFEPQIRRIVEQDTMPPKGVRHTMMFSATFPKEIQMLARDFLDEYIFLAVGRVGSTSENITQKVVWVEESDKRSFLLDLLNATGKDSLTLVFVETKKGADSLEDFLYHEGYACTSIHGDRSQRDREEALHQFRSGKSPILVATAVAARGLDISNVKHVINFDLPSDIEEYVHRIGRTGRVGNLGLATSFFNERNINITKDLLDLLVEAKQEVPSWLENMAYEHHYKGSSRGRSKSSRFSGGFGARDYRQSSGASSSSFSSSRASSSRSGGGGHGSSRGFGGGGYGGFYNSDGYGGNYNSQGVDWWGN
The target of test [7] is Tyrosine-protein kinase JAK1 (Homo sapiens, UniProt P23458).
Sequence of Tyrosine-protein kinase JAK1 (P23458 whole entry): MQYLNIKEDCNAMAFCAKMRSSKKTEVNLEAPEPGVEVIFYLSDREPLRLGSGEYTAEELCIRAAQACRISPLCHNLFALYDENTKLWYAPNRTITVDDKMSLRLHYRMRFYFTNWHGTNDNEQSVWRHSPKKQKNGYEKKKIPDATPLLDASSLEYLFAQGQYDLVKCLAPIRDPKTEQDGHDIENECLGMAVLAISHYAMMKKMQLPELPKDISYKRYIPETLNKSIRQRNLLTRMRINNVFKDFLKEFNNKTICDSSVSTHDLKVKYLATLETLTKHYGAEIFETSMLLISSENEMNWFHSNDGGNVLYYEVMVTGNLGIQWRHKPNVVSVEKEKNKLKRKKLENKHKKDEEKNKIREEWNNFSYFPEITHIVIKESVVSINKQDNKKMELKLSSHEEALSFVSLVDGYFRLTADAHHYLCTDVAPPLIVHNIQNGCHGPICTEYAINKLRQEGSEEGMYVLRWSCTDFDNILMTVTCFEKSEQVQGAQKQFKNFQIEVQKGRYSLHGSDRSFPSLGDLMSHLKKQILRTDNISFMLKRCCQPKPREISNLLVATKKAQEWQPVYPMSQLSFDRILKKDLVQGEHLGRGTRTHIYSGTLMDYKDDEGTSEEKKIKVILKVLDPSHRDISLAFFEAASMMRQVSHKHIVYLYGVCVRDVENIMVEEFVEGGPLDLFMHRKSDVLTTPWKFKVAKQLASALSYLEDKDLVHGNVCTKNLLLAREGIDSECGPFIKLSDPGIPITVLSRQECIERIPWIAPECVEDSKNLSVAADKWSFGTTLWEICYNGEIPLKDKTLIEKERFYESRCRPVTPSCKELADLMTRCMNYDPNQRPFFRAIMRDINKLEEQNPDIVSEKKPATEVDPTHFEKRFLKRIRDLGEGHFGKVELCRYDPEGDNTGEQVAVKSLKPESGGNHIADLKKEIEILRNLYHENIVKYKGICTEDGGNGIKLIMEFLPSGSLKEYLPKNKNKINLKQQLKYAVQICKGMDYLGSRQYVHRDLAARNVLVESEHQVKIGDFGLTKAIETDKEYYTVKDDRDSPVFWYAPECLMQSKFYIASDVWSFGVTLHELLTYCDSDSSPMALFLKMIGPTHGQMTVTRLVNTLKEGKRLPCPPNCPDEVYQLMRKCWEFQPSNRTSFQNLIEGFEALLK
Test [8] has as its target Mitogen-activated protein kinase kinase kinase 4 (Homo sapiens, UniProt Q9Y6R4).
Test [9] has as its target Myosin light chain kinase, smooth muscle (Homo sapiens, UniProt Q15746).
The target in test [10] is Citron Rho-interacting kinase (Homo sapiens, UniProt O14578).
The target in test [11] is T4, Serine/threonine-protein kinase D2 (Homo sapiens, UniProt Q9BZL6).
T4 sequence (Q9BZL6 whole entry): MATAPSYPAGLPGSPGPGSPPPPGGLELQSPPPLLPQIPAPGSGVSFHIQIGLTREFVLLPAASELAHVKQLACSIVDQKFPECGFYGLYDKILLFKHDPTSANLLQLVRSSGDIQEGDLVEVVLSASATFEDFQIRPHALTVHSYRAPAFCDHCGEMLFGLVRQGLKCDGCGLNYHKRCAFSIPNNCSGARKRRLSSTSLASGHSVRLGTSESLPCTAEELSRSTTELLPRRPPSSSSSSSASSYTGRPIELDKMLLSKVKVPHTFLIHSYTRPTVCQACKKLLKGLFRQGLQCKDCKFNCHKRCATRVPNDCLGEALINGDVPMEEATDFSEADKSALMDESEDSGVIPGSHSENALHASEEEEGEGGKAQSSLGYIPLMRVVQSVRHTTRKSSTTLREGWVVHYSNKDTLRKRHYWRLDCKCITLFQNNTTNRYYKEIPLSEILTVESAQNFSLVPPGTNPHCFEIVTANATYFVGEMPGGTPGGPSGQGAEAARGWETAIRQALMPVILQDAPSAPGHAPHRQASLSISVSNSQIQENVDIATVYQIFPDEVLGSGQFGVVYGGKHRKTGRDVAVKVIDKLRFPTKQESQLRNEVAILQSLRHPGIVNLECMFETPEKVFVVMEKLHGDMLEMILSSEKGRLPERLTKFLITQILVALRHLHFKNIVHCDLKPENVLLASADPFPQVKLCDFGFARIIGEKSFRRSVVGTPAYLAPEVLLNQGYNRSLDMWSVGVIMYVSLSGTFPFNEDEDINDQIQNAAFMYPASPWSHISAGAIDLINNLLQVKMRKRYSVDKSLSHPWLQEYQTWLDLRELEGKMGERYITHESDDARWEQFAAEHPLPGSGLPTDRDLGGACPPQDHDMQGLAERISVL

Test [12] concerns the target Cyclin-dependent kinase 13 (Homo sapiens, UniProt Q14004).
Test [13] has as its target Mitotic checkpoint serine/threonine-protein kinase BUB1 (Homo sapiens, UniProt O43683).

Activity calls are given as the source filed them. For most assays here, no stated cut-off is given here; in the data, actives have a measured Kd and inactives only a lower limit. Bounds are passed on as bounds.

Sequence of Cyclin-dependent kinase 13 (Q14004 whole entry): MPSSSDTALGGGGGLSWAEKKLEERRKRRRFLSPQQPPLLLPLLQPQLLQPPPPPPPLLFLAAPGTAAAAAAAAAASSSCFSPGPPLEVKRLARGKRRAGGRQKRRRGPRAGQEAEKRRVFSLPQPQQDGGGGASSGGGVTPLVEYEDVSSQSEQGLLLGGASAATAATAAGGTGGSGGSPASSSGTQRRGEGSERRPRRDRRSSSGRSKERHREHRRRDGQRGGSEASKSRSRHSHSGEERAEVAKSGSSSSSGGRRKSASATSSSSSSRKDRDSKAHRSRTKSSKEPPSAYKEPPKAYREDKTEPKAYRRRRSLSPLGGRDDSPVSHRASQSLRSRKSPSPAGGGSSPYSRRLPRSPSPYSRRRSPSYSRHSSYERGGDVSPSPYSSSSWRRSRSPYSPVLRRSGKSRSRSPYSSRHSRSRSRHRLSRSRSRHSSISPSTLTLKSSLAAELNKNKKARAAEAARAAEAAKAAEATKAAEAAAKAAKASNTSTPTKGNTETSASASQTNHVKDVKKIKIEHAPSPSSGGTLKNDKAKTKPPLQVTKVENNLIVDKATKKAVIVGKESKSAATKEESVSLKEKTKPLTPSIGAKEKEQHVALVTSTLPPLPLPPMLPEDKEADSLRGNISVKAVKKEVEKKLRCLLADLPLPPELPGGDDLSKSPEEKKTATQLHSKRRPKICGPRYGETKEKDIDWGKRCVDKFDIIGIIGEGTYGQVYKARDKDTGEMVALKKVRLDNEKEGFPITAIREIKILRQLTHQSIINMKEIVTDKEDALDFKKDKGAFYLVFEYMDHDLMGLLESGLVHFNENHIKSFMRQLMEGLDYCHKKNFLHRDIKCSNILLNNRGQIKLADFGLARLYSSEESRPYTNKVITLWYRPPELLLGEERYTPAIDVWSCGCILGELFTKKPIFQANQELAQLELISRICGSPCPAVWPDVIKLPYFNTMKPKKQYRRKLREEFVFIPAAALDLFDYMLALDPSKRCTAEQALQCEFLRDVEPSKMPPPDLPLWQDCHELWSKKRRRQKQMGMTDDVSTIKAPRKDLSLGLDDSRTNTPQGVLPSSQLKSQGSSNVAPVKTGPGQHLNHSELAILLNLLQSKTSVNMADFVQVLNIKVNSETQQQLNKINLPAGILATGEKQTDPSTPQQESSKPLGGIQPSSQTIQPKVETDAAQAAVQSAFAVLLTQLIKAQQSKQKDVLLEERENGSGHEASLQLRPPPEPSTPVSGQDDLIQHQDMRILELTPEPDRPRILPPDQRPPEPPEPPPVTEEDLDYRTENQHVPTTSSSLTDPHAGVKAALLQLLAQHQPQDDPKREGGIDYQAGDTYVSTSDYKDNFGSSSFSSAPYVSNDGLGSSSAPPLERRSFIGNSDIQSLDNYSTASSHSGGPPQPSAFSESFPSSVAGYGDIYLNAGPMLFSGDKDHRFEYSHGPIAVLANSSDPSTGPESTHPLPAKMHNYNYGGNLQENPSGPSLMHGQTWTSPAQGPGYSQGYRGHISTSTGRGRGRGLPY
Sequence of Mitotic checkpoint serine/threonine-protein kinase BUB1 (O43683 whole entry): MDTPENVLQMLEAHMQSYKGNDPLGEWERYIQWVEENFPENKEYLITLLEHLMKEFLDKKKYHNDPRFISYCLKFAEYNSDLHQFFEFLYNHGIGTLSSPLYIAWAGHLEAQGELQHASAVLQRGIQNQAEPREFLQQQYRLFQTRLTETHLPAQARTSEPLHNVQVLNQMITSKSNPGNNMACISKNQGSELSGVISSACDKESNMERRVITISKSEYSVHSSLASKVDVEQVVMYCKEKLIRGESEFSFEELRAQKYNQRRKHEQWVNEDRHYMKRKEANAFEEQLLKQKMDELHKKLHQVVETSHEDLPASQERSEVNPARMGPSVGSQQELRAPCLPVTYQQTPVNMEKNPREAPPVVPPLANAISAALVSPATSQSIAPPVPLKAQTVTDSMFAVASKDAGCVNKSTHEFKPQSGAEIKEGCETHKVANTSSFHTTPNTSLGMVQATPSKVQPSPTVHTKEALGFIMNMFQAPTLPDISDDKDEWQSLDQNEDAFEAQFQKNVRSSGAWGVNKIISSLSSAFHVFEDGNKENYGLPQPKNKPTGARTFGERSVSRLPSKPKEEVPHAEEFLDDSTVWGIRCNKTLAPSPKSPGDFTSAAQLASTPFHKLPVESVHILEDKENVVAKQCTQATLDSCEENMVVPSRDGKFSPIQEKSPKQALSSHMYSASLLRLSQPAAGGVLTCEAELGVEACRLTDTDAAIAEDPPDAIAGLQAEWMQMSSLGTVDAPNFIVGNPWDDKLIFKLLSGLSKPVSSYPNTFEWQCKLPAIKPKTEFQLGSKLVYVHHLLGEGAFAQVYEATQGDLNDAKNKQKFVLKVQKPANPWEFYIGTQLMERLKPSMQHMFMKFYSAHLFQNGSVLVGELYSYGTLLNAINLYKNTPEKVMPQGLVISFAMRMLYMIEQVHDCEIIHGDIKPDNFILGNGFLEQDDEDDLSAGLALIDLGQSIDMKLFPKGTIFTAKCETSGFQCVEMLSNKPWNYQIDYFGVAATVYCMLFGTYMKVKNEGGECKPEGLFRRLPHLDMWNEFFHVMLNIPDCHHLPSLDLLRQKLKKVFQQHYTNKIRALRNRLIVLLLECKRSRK

As to `CC[C@@H]1C(=O)N(C)c2cnc(Nc3ccc(C(=O)N[C@H]4CC[C@H](N5CCN(CC6CC6)CC5)CC4)cc3OC)nc2N1C(C)C` [VOLASERTIB], the Kd (in [1]; in [2]; in test [3]; at Ephrin type-A receptor 4; in [4]; in [5]) was > 30 µM (inactive) in each case. In addition, the Kd in test [6], in [7], in test [8], in test [9], in test [10] and in [11] was > 30 µM (inactive) in each case. Moreover, the Kd in [12] and in [13] was > 30 µM (inactive) in each case.

`O=c1sn(-c2cccc3ccccc23)c(=O)n1Cc1ccccc1` [TIDEGLUSIB]: the Kd (in test [1]; in [2]; in test [3]; at Ephrin type-A receptor 4; in test [4]; in test [5]) was > 30 µM (inactive) each time. For the same molecule, the Kd in [6], in test [7], in test [8], in test [9], in [10] and in test [11] was > 30 µM (inactive) in each case. Besides, the Kd in [12] and in test [13] was > 30 µM (inactive) each time.

With `CO[C@H]1C[C@@H]2CC[C@@H](C)[C@@](O)(O2)C(=O)C(=O)N2CCCC[C@H]2C(=O)O[C@H]([C@H](C)C[C@@H]2CC[C@@H](OCCO)[C@H](OC)C2)CC(=O)[C@H](C)/C=C(\C)[C@@H](O)[C@@H](OC)C(=O)[C@H](C)C[C@H](C)/C=C/C=C/C=C/1C` [EVEROLIMUS], the Kd (in test [1]; in test [2]; in test [3]; on Ephrin type-A receptor 4; in test [4]; in test [5]) was > 30 µM (inactive) each time. In addition, the Kd in test [6], in test [7], in test [8], in test [9], in test [10] and in test [11] was > 30 µM (inactive) in each case. Moreover, the Kd in test [12] and in test [13] was > 30 µM (inactive) in each case.

Take `CN(C)C(=O)c1cc2cnc(Nc3ccc(N4CCNCC4)cn3)nc2n1C1CCCC1` [RIBOCICLIB]: the Kd (in test [1]; in test [2]; in test [3]; on Ephrin type-A receptor 4; in test [4]; in [5]) was > 30 µM (inactive) in each case. The Kd (commonly the concentration at which binding is half-saturated) in test [6] was > 30 µM (inactive); in [7] it was > 30 µM (inactive); in [8], > 30 µM (inactive); in test [9], > 30 µM (inactive); in test [10] it was > 30 µM (inactive); in [11], 25 µM (active). The Kd in test [12] and in [13] was > 30 µM (inactive) throughout.

Regarding `CC(C)Nc1cc(-c2c[nH]c(C(=O)N[C@H](CO)c3cccc(Cl)c3)c2)c(Cl)cn1` [ULIXERTINIB], the Kd (in test [1]; in test [2]; in test [3]; on Ephrin type-A receptor 4; in [4]; in [5]) was > 30 µM (inactive) throughout. The Kd in test [6] is > 30 µM (inactive); in test [7] it was > 30 µM (inactive); in test [8] it was > 30 µM (inactive); in [9], > 30 µM (inactive); in test [10], > 30 µM (inactive); in test [11], 6.34 µM (active). The Kd in test [12] and in [13] was > 30 µM (inactive) each time.
